# Measurements published in US4277497A, “Analgesic 2-(M-benzoylphenoxy)-propionic acid derivatives” (Unicler, priority 1978, dated 1981).
# Structures can show the parent of a compound that is named as a salt.
# Experiments:
# [1] = Oral toxicity in mice (Miller and Tainter's method); type: in vivo; settings: mouse, in vivo, po, read-out: LD50 toxicity orally
# Experimental: (§1) The toxicity of the compounds according to the invention administered orally was also determined in mice by Miller and Tainter's method.
# [2] = tested on: carrageenin oedema; test: Carrageenin oedema test (Winter and Risley's technique), anti-inflammatory activity; type: in vivo, rats (Wistar strain, female); settings: rats, inhibition of oedema compared with control batch
# Experimental: The anti-inflammatory activity was measured by the carrageenin oedema test according to Winter and Risley's technique (Proc. Soc. Exp. Biol. 111, 544, 1962). The test was carried out on batches of 10 Wistar strain female rats weighing 180 g, which receives the products in an amount of 1/10 of the LD50. The anti-inflammatory activity corresponds to the inhibition of the oedema in the treated batch compared with the control batch.
# [3] = tested on: painful syndrome produced in mice by phenylbenzoquinone; test: Analgesic test of Siegmund, Cadmus and Lu (phenylbenzoquinone-induced painful syndrome, stretching); type: in vivo, mice (Swiss strain); settings: oral; for Analgesic activity at 1/10 of LD50: dose 1/10 of LD50, 30 minutes before phenylbenzoquinone; for Analgesic activity at 1/40 of LD50: dose 1/40 of LD50, 30 minutes before phenylbenzoquinone
# Experimental: They were in particular subjected to the analgesic test of Siegmund, Cadmus and Lu (Proc. Soc. Exp. Biol. Med. 95, 729, 1957) according to which a characteristic painful syndrome is produced in mice by injecting phenylbenzoquinone.
# The animals used are Swiss strain mice, weighing 20±2 grams.
# The animals are distributed in random batches of 10, but are tested individually. Each test comprises at least two batches.
# a control batch that receives the solvent and phenylbenzoquinone
# a batch treated with the product being investigated.
# The investigated products are administered orally, in an amount of 1/10 or 1/40 of the LD50, 30 minutes before the injection of the irritant agent. Each mouse then receives 0.25 ml of a 0.02% phenylbenzoquinone solution intraperitoneally.
# The pain syndrome produced by the injection of phenylbenzoquinone causes the animals to stretch their stomach and rear paws, and at the crisis point of the reaction the animal's flanks are very contracted. 5 minutes after the injection of the irritant, the stretching is counted for a period of 10 minutes.
# The average number of stretchings is calculated for each batch. The activity of the product under investigations is determined by comparison with the average number of stretchings in the treated animals (N) and the average number of stretchings in the control animals (N'). [formula]
# The statistical significance of the result thus obtained is evaluated by Fisher's non-parametric test.
# [4] = tested on: mice; test: Oral toxicity in mice (Miller and Tainter's method); type: in vivo
# Experimental: as §1
SMILES,LD50 [1],Anti-inflammatory activity at 1/10 of LD50 [2],Analgesic activity at 1/10 of LD50 [3],Analgesic activity at 1/40 of LD50 [3],LD50 toxicity orally [4]
CCOC(=O)C(C)Oc1cccc(C(=O)c2ccc(Cl)cc2)c1C (stereo not shown) [Ethyl ester of Example 6],1500 mg/kg,62%,77%,73%,–
Cc1ccc(C(=O)c2cccc(OC(C)C(=O)O)c2)cc1 (stereo not shown) [Lysine salt of Ex. 8],–,30%,87%,36%,2000 mg/kg
Cc1c(OC(C)C(=O)O)cccc1C(=O)c1ccc(Cl)cc1 (stereo not shown) [Example 6],750 mg/kg,46%,94%,83%,–
Cc1c(OC(C)C(=O)O)cccc1C(=O)c1ccccc1 (stereo not shown) [Example 2],750 mg/kg,33%,73%,–,–
Cc1ccc(C(=O)c2cccc(OC(C)C(=O)O)c2)c(C)c1 (stereo not shown) [Example 11],2000 mg/kg,41%,97%,31%,–
Cc1ccc(C(=O)c2cccc(OC(C)C(=O)O)c2)cc1 (stereo not shown) [Example 8],1500 mg/kg,40%,84%,86%,–
CC(Oc1cccc(C(=O)c2ccc(F)cc2)c1)C(=O)O (stereo not shown) [Example 5],1500 mg/kg,26%,89%,63%,–
CC(Oc1cccc(C(=O)c2ccccc2)c1)C(=O)O (stereo not shown) [Lysine salt of Ex. 1],–,50%,97%,86%,2000 mg/kg
CC(Oc1cccc(C(=O)c2ccc(Cl)cc2Cl)c1)C(=O)O (stereo not shown) [Example 3],1500 mg/kg,18%,98.5%,71%,–
Cc1c(OC(C)C(=O)O)cccc1C(=O)c1ccc(Cl)cc1Cl (stereo not shown) [Example 9],750 mg/kg,–,64%,–,–
Cc1c(OC(C)C(=O)O)cccc1C(=O)c1ccc(Cl)cc1 (stereo not shown) [Lysine salt of Ex. 6],–,57%,80%,89%,1000 mg/kg
CC(Oc1cccc(C(=O)c2ccccc2)c1)C(=O)O (stereo not shown) [Example 1],1000 mg/kg,17%,86%,84%,–
CC(Oc1cccc(C(=O)c2ccc(Br)cc2)c1)C(=O)O (stereo not shown) [Example 4],1000 mg/kg,45%,84%,58%,–
Cc1ccc(C(=O)c2cccc(OC(C)C(=O)O)c2C)cc1 (stereo not shown) [Example 10],600 mg/kg,32%,92%,–,–
Cc1ccc(C(=O)c2ccc(Cl)cc2)cc1OC(C)C(=O)O (stereo not shown) [Example 7],500 mg/kg,21%,81%,–,–
